Data from US7022705B2, “Isoxazoline derivatives useful as antimicrobials” (AstraZeneca AB, priority 2001, dated 2006).
Converted amounts (≈) assume the structure as drawn.

Key:
Format in all cases: cell-based
[1] = system: Staphylococcus aureus MSQS (methicillin sensitive and quinolone sensitive); assay: MIC, agar-dilution, Staphylococcus aureus MSQS; conditions: inoculum 10^4 CFU/spot, 37° C., 24 hours
Procedure: (§1) The following results were obtained on a standard in-vitro test system. The activity is described in terms of the minimum inhibitory concentration (MIC) determined by the agar-dilution technique with an inoculum size of 10^4 CFU/spot. Typically, compounds are active in the range 0.01 to 256 μg/ml.
(§2) Staphylococci were tested on agar, using an inoculum of 10^4 CFU/spot and an incubation temperature of 37° C. for 24 hours—standard test conditions for the expression of methicillin resistance.

Streptococcus pneumoniae = assay: MIC, agar with 5% horse blood, Streptococcus pneumoniae; conditions: agar with 5% defibrinated horse blood, 10^4 CFU/spot, 37° C., 5% carbon dioxide, 48 hours
Procedure: as §1
(§3) Streptococci and enterococci were tested on agar supplemented with 5% defibrinated horse blood, an inoculum of 10^4 CFU/spot and an incubation temperature of 37° C. in an atmosphere of 5% carbon dioxide for 48 hours—blood is required for the growth of some of the test organisms. Fastidious Gram negative organisms were tested in Mueller-Hinton broth, supplemented with hemin and NAD, grown aerobically for 24 hours at 37° C., and with an innoculum of 5×10^4 CFU/well.

Haemophilus influenzae = assay: MIC, Mueller-Hinton broth, Haemophilus influenzae; conditions: Mueller-Hinton broth with hemin and NAD, aerobic, 24 hours, 37° C., 5×10^4 CFU/well
Procedure: as §1, §3

[2] = system: Staphylococcus aureus MRQR (methicillin resistant and quinolone resistant); assay: MIC, agar-dilution, Staphylococcus aureus MRQR; conditions: inoculum 10^4 CFU/spot, 37° C., 24 hours
Procedure: as §1, §2

Streptococcus pyogenes = assay: MIC, agar with 5% horse blood, Streptococcus pyogenes; conditions: agar with 5% defibrinated horse blood, 10^4 CFU/spot, 37° C., 5% carbon dioxide, 48 hours
Procedure: as §1, §3

Moraxella catarrhalis = assay: MIC, Mueller-Hinton broth, Moraxella catarrhalis; conditions: Mueller-Hinton broth with hemin and NAD, aerobic, 24 hours, 37° C., 5×10^4 CFU/well
Procedure: as §1, §3

Fc1cc(C2=NOC(Cn3ccnn3)C2)ccc1N1CCNCC1 (racemic) [Example 7, (5RS)-3-(3-Fluoro-4-piperazin-1-ylphenyl)-5-(1,2,3-triazol-1-yl-methyl)-4,5-dihydroisoxazole]
MIC [1]: 8 µg/mL (≈ 24.2 µM) | MIC (Streptococcus pneumoniae): 1 µg/mL (≈ 3.03 µM) | MIC (Haemophilus influenzae): 32 µg/mL (≈ 96.9 µM) | MIC [2]: 16 µg/mL (≈ 48.4 µM) | MIC (Streptococcus pyogenes): 2 µg/mL (≈ 6.05 µM) | MIC (Moraxella catarrhalis): 32 µg/mL (≈ 96.9 µM)
